Test results: US7223791B2, “Function regulator for retinoid relative receptor” (Takeda Pharmaceutical Company Limited, priority 2001, dated 2007)

| SMILES | melting point |
| --- | --- |
| CCOC(=O)c1ccc(-c2nc(-c3ccccc3)ccc2Cl)cc1 [Example 1, ethyl 4-(3-chloro-6-phenyl-2-pyridyl)benzoate] | 81 to 82 °C |
| O=C(O)c1ccc(-c2nc(-c3ccccc3)ccc2Cl)cc1 [Example 2, 4-(3-chloro-6-phenyl-2-pyridyl)benzoic acid] | 254 to 255 °C |
| CCOC(=O)c1ccc(-c2ccc(-c3ccc(C(F)(F)F)cc3)n2C)cc1 [Example 3, ethyl 4-[1-methyl-5-(4-trifluoromethylphenyl)-2-pyrrolyl]benzoate] | 150 to 151 °C |
| CCOC(=O)c1cccc(-c2ccc(-c3ccc(C(F)(F)F)cc3)o2)c1 [Example 5, ethyl 3-[5-(4-trifluoromethylphenyl)-2-furyl]benzoate] | 93 to 94 °C |
| O=C(O)c1ccccc1-c1ccc(-c2ccc(C(F)(F)F)cc2)o1 [Example 8, 2-[5-(4-trifluoromethylphenyl)-2-furyl]benzoic acid] | 182 to 183 °C |
| O=C(OCc1ccccc1)c1cc(-c2ccc(-c3ccc(C(F)(F)F)cc3)o2)ccc1OCc1ccccc1 [Example 11, benzyl 2-benzyloxy-5-[5-(4-trifluoromethylphenyl)-2-furyl]benzoate] | 97 to 98 °C |
| O=C(O)c1cc(-c2ccc(-c3ccc(C(F)(F)F)cc3)o2)ccc1O [Example 12, 5-[5-(4-trifluoromethylphenyl)-2-furyl]salicylic acid] | 272 to 273 °C |
| CCOC(=O)c1ccc(-c2ccc(-c3ccc(Cl)cc3)s2)cc1 [Example 13, ethyl 4-[5-(4-chlorophenyl)-2-thienyl]benzoate] | 167 to 168 °C |
| CCOC(=O)c1ccc(-c2ccc(-c3ccc(C(F)(F)F)cc3)s2)cc1 [Example 14, ethyl 4-[5-(4-trifluoromethylphenyl)-2-thienyl]benzoate] | 203 to 204 °C |
| COC(=O)c1ccc(-c2cc(-c3ccccc3)no2)cc1 [Example 17, methyl 4-(3-phenyl-5-isoxazolyl)benzoate] | 205 to 206 °C |
| COC(=O)c1ccc(-c2cc(-c3ccc(Cl)cc3)no2)cc1 [Example 18, methyl 4-[3-(4-chlorophenyl)-5-isoxazolyl]benzoate] | 225 to 226 °C |
| COC(=O)c1cccc(-c2cc(-c3ccccc3)on2)c1 [Example 20, methyl 3-(5-phenyl-3-isoxazolyl)benzoate] | 99 to 100 °C |
| COC(=O)c1ccc(-c2cc(-c3ccccc3)on2)cc1 [Example 21, methyl 4-(5-phenyl-3-isoxazolyl)benzoate] | 201 to 202 °C |
| COC(=O)c1cccc(-c2cc(-c3ccc(Cl)cc3)on2)c1 [Example 22, methyl 3-[5-(4-chlorophenyl)-3-isoxazolyl)benzoate] | 157 to 158 °C |
| COC(=O)c1ccc(-c2cc(-c3ccc(Cl)cc3)on2)cc1 [Example 23, methyl 4-[5-(4-chlorophenyl)-3-isoxazolyl]benzoate] | 225 to 226 °C |
| O=C(O)c1ccc(-c2cc(-c3ccccc3)no2)cc1 [Example 24, 4-(3-phenyl-5-isoxazolyl)benzoic acid] | > 300 °C |
| O=C(O)c1ccc(-c2cc(-c3ccc(Cl)cc3)no2)cc1 [Example 25, 4-[3-(4-chlorophenyl)-5-isoxazolyl]benzoic acid] | > 300 °C |
| COC(=O)c1cccc(-c2cc(-c3ccc(C(F)(F)F)cc3)on2)c1 [Example 31, methyl 3-[5-(4-trifluoromethylphenyl)-3-isoxazolyl]benzoate] | 139 to 140 °C |
| COC(=O)c1ccc(-c2cc(-c3ccc(C(F)(F)F)cc3)on2)cc1 [Example 32, methyl 4-[5-(4-trifluoromethylphenyl)-3-isoxazolyl]benzoate] | 183 to 184 °C |
| COC(=O)c1ccc(-c2n[nH]c(-c3ccccc3)n2)cc1 [Example 36, methyl 4-(5-phenyl-1H-1,2,4-triazol-3-yl)benzoate] | 243 to 244 °C |
| COC(=O)c1ccc(-c2nc(-c3ccccc3)n(C)n2)cc1 [Example 37, methyl 4-(1-methyl-5-phenyl-1H-1,2,4-triazol-3-yl)benzoate] | 167 to 168 °C |
| O=C(O)c1ccc(-c2n[nH]c(-c3ccccc3)n2)cc1 [Example 38, 4-(5-phenyl-1H-1,2,4-triazol-3-yl)benzoic acid] | > 300 °C |
| Cn1nc(-c2ccc(C(=O)O)cc2)nc1-c1ccccc1 [Example 39, 4-(1-methyl-5-phenyl-1H-1,2,4-triazol-3-yl)benzoic acid] | 243 to 244 °C |
| COC(=O)c1ccc(-c2nc(-c3ccc(C(F)(F)F)cc3)no2)cc1 [Example 40, methyl 4-[3-(4-trifluoromethylphenyl)-1,2,4-oxadiazol-5-yl]benzoate] | 177 to 178 °C |

| SMILES | melting point |
| --- | --- |
| COC(=O)c1ccc(-c2nc(-c3ccc(Oc4ccccc4)cc3)no2)cc1 [Example 41, methyl 4-[3-(4-phenoxyphenyl)-1,2,4-oxadiazol-5-yl]benzoate] | 112 to 113 °C |
| O=C(O)c1ccc(-c2nc(-c3ccc(C(F)(F)F)cc3)no2)cc1 [Example 42, 4-[3-(4-trifluoromethylphenyl)-1,2,4-oxadiazol-5-yl]benzoic acid] | 293 to 294 °C |
| O=C(O)c1ccc(-c2nc(-c3ccc(Oc4ccccc4)cc3)no2)cc1 [Example 43, 4-[3-(4-phenoxyphenyl)-1,2,4-oxadiazol-5-yl]benzoic acid] | 278 to 279 °C |
| COC(=O)c1ccc(-c2nnc(-c3ccccc3)o2)cc1 [Example 45, methyl 4-(5-phenyl-1,3,4-oxadiazol-2-yl)benzoate] | 172 to 173 °C |
| COC(=O)c1ccc(-c2nnc(-c3ccc(C(C)(C)C)cc3)o2)cc1 [Example 47, methyl 4-[5-(4-t-butylphenyl)-1,3,4-oxadiazol-2-yl]benzoate] | 210 to 211 °C |
| O=C(O)c1ccc(-c2nnc(-c3ccccc3)o2)cc1 [Example 48, 4-[5-phenyl-1,3,4-oxadiazol-2-yl]benzoic acid] | > 300 °C |
| O=C(O)c1ccc(-c2nnc(-c3ccc(C(F)(F)F)cc3)o2)cc1 [Example 49, 4-[5-(4-trifluoromethylphenyl)-1,3,4-oxadiazol-2-yl]benzoic acid] | > 300 °C |
| CC(C)(C)c1ccc(-c2nnc(-c3ccc(C(=O)O)cc3)o2)cc1 [Example 50, 4-[5-(4-t-butylphenyl)-1,3,4-oxadiazol-2-yl]benzoic acid] | 284 to 286 °C |
| O=C(O)c1cccc(-c2nnc(-c3ccc(C(F)(F)F)cc3)o2)c1 [Example 51, 3-[5-(4-trifluoromethylphenyl)-1,3,4-oxadiazol-2-yl]benzoic acid] | 239 to 240 °C |
| O=C(O)c1ccc(-c2nnc(-c3ccccc3[N+](=O)[O-])o2)cc1 [Example 52, 4-[5-(2-nitrophenyl)-1,3,4-oxadiazol-2-yl]benzoic acid] | 239 to 240 °C |
| CCOC(=O)c1ccc(-c2nnc(-c3ccccc3[N+](=O)[O-])o2)cc1 [Example 53, ethyl 4-[5-(2-nitrophenyl)-1,3,4-oxadiazol-2-yl]benzoate] | 127 to 128 °C |
| CCOC(=O)c1ccc(-c2nnc(-c3ccccc3N)o2)cc1 [Example 54, ethyl 4-[5-(2-aminophenyl)-1,3,4-oxadiazol-2-yl]benzoate] | 174 to 175 °C |
| Nc1ccccc1-c1nnc(-c2ccc(C(=O)O)cc2)o1 [Example 55, 4-[5-(2-aminophenyl)-1,3,4-oxadiazol-2-yl]benzoic acid] | > 300 °C |
| O=C(O)c1ccc(-c2nnc(-c3ccc(C(F)(F)F)cc3)s2)cc1 [Example 59, 4 [5-(4-trifluoromethylphenyl)-1,3,4-thiadiazol-2-yl]benzoic acid] | > 300 °C |
| COC(=O)c1ccc(-c2nc(-c3ccc(Cl)cc3)no2)c([N+](=O)[O-])c1 [Example 60, methyl 4-[3-(4-chlorophenyl)-1,2,4-oxadiazol-5-yl]-3-nitrobenzoate] | 189 to 190 °C |
| O=C(O)c1ccc(-c2nc(-c3ccc(Cl)cc3)no2)c([N+](=O)[O-])c1 [Example 62, 4-[3-(4-chlorophenyl)-1,2,4-oxadiazol-5-yl]-3-nitrobenzoic acid] | 257 to 258 °C |
| O=C(O)c1ccc(-c2nc(-c3ccc(C(F)(F)F)cc3)no2)c([N+](=O)[O-])c1 [Example 63, 3-nitro-4-[3-(4-trifluoromethylphenyl)-1,2,4-oxadiazol-5-yl]benzoic acid] | 233 to 234 °C |
| Nc1cc(C(=O)O)ccc1-c1nc(-c2ccc(Cl)cc2)no1 [Example 64, 3-amino-4-[3-(4-chlorophenyl)-1,2,4-oxadiazol-5-yl]benzoic acid] | 294 to 296 °C (dec.) |
| COC(=O)c1ccc(-c2nc(-c3ccc(C(F)(F)F)cc3)no2)c(NC(=O)C(F)(F)F)c1 [Example 65, methyl 3-trifluoroacetylamino-4-[3-(4-trifluoromethylphenyl)-1,2,4-oxadiazol-5-yl]benzoate] | 188 to 189 °C |
| Nc1cc(C(=O)O)ccc1-c1nc(-c2ccc(C(F)(F)F)cc2)no1 [Example 66, 3-amino-4-[3-(4-trifluoromethylphenyl)-1,2,4-oxadiazol-5-yl]benzoic acid] | > 300 °C |
| COC(=O)c1ccc(-c2nnc(-c3ccc(C(F)(F)F)cc3)o2)c([N+](=O)[O-])c1 [Example 67, methyl 3-nitro-4-[5-(4-trifluoromethylphenyl)-1,3,4-oxadiazol-2-yl]benzoate] | 173 to 174 °C |
| COC(=O)c1ccc(-c2nnc(-c3ccc(C(C)(C)C)cc3)o2)c([N+](=O)[O-])c1 [Example 68, methyl 4-[5-(4-t-butylphenyl)-1,3,4-oxadiazol-2-yl]-3-nitrobenzoate] | 142 to 143 °C |
| O=C(O)c1ccc(-c2nnc(-c3ccc(C(F)(F)F)cc3)o2)c([N+](=O)[O-])c1 [Example 69, 3-nitro-4-[5-(4-trifluoromethylphenyl)-1,3,4-oxadiazol-2-yl]benzoic acid] | 254 to 255 °C |
| CC(C)(C)c1ccc(-c2nnc(-c3ccc(C(=O)O)cc3[N+](=O)[O-])o2)cc1 [Example 70, 4-[5-(4-t-butylphenyl)-1,3,4-oxadiazol-2-yl]-3-nitrobenzoic acid] | 233 to 235 °C |
